Source: patent US20240041877A1, “DOSAGE REGIME AND METHOD FOR TREATING PULMONARY ARTERIAL HYPERTENSION” (Altavant Sciences GmbH, priority 2019, published 2024)

Experiment: Part 2 (MAD): plasma pharmacokinetics after BID oral KAR5585 for 14 days (incl. accumulation ratios and dose proportionality)
[1] = KAR5585 200 mg BID fed, Cohort 3, Day 1 PM, mean
[2] = KAR5585 200 mg BID fed, Cohort 3, Day 7 AM, Day 7/Day 1 accumulation ratio, geo. mean
[3] = KAR5585 200 mg BID fed, Cohort 3, Day 7 AM, Day 7/Day 1 accumulation ratio, mean
[4] = KAR5585 200 mg BID fed, Cohort 3, Day 7 AM, geo. mean
[5] = KAR5585 200 mg BID fed, Cohort 3, Day 7 AM, mean
[6] = KAR5585 200 mg BID fed, Cohort 3, Day 7 PM, Day 7/Day 1 accumulation ratio, geo. mean
[7] = KAR5585 200 mg BID fed, Cohort 3, Day 7 PM, Day 7/Day 1 accumulation ratio, mean
[8] = KAR5585 200 mg BID fed, Cohort 3, Day 7 PM, geo. mean
[9] = KAR5585 200 mg BID fed, Cohort 3, Day 7 PM, mean
[10] = KAR5585 200 mg BID fed, Cohort 3, Day 14 AM, Day 14/Day 1 accumulation ratio, geo. mean
[11] = KAR5585 200 mg BID fed, Cohort 3, Day 14 AM, Day 14/Day 1 accumulation ratio, mean
[12] = KAR5585 200 mg BID fed, Cohort 3, Day 14 AM, geo. mean
[13] = KAR5585 200 mg BID fed, Cohort 3, Day 14 AM, mean
[14] = KAR5585 400 mg BID fed, Cohort 4, Day 1 AM, geo. mean
[15] = KAR5585 400 mg BID fed, Cohort 4, Day 1 AM, mean
[16] = KAR5585 400 mg BID fed, Cohort 4, Day 1 PM, geo. mean
[17] = KAR5585 400 mg BID fed, Cohort 4, Day 1 PM, mean
[18] = KAR5585 400 mg BID fed, Cohort 4, Day 7 AM, Day 7/Day 1 accumulation ratio, geo. mean
[19] = KAR5585 400 mg BID fed, Cohort 4, Day 7 AM, Day 7/Day 1 accumulation ratio, mean
[20] = KAR5585 400 mg BID fed, Cohort 4, Day 7 AM, geo. mean
[21] = KAR5585 400 mg BID fed, Cohort 4, Day 7 AM, mean
[22] = KAR5585 400 mg BID fed, Cohort 4, Day 7 PM, Day 7/Day 1 accumulation ratio, geo. mean
[23] = KAR5585 400 mg BID fed, Cohort 4, Day 7 PM, Day 7/Day 1 accumulation ratio, mean
[24] = KAR5585 400 mg BID fed, Cohort 4, Day 7 PM, geo. mean
[25] = KAR5585 400 mg BID fed, Cohort 4, Day 7 PM, mean
[26] = KAR5585 400 mg BID fed, Cohort 4, Day 14 AM, Day 14/Day 1 accumulation ratio, geo. mean
[27] = KAR5585 400 mg BID fed, Cohort 4, Day 14 AM, Day 14/Day 1 accumulation ratio, mean
[28] = KAR5585 400 mg BID fed, Cohort 4, Day 14 AM, geo. mean
[29] = KAR5585 400 mg BID fed, Cohort 4, Day 14 AM, mean
[30] = power model, PK Day 1 (AM), 100 to 400 mg KAR5585 repeat oral doses, fed
[31] = power model, PK Day 7 (AM), 100 to 400 mg KAR5585 repeat oral doses, fed
[32] = power model, PK Day 14 (AM), 100 to 400 mg KAR5585 repeat oral doses, fed

Description: Food effect was to be evaluated in Part 1, Period 2.
Pharmacokinetic data were to be summarized descriptively.

Compound Nc1nc(O[C@H](c2ccc(Cl)cc2-c2ccccc2)C(F)(F)F)cc(N2CCC3(CC2)CN[C@H](C(=O)O)C3)n1 [KAR5417, (S)-8-(2-amino-6-((R)-1-(5-chloro-[1,1T-biphenyl]-2-yl)-2,2,2-trifluoroeth-oxy)pyrimidin-4-yl)-2,8-diazaspiro[4.5]decane-3-carboxylic acid] has a t1/2 (KAR5585 200 mg BID fed, Cohort 3, Day 1 PM, geo. mean) of 5.95 h, an AUC0-12 [1] of 2 µg·h/mL and an AUC0-24 [1] of 3.7 µg·h/mL. The AUC0-24/D [1] was 9.26 (hr*ng/ml)/mg, the “AUC0-∞” value [1] was 2.72 µg·h/mL and the C12 [1] was 112 ng/mL. The Cmax [1] was 0.322 µg/mL, the Cmax/D [1] was 1.61 (ng/ml)/mg and the t1/2 [1] was 6.03 h. For the same compound, the Tmax (KAR5585 200 mg BID fed, Cohort 3, Day 1 PM, median) was 4.0 h, the RAUC0-12 [2] was 1.33 and the RCmax [2] was 0.989. It also gave an RAUC0-12 [3] of 1.34, an RCmax [3] of 1.00 and an AUC0-12 [4] of 2.15 µg·h/mL. The “AUC0-∞” value [4] was 2.61 µg·h/mL, the C12 [4] was 87.2 ng/mL and the Cmax [4] was 0.332 µg/mL. The Cmax/D [4] was 1.66 (ng/ml)/mg, the t1/2 [4] was 4.57 h and the AUC0-12 [5] was 2.3 µg·h/mL. For the same compound, the “AUC0-∞” value [5] was 2.8 µg·h/mL, the C12 [5] was 93.1 ng/mL and the Cmax [5] was 0.359 µg/mL. For the same compound, the Cmax/D [5] was 1.80 (ng/ml)/mg, the t1/2 [5] was 4.61 h and the RAUC0-12 [6] was 0.955. The RCmax [6] was 0.645, the RAUC0-12 [7] was 0.984 and the RCmax [7] was 0.711. For the same compound, the AUC0-12 [8] was 1.49 µg·h/mL, the AUC0-24 [8] was 3.62 µg·h/mL and the AUC0-24/D [8] was 9.05 (hr*ng/ml)/mg. The “AUC0-∞” value [8] was 2.27 µg·h/mL, the C12 [8] was 131 ng/mL and the Cmax [8] was 0.212 µg/mL. For the same compound, the Cmax/D [8] was 1.06 (ng/ml)/mg, the t1/2 [8] was 6.48 h and the AUC0-12 [9] was 1.54 µg·h/mL. For the same compound, the AUC0-24 [9] was 3.81 µg·h/mL, the AUC0-24/D [9] was 9.52 (hr*ng/ml)/mg and the “AUC0-∞” value [9] was 2.28 µg·h/mL. For the same compound, the C12 [9] was 145 ng/mL, the Cmax/D [9] was 1.11 (ng/ml)/mg and the t1/2 [9] was 6.64 h. For the same compound, the RAUC0-12 [10] was 1.07, the RCmax [10] was 0.854 and the RAUC0-12 [11] was 1.09. It also gave an RCmax [11] of 0.901, an AUC0-12 [12] of 1.67 µg·h/mL and an AUC0-24 [12] of 2.2 µg·h/mL. The “AUC0-∞” value [12] was 3.25 µg·h/mL, the C12 [12] was 59.6 ng/mL and the Cmax [12] was 0.281 µg/mL. The Cmax/D [12] was 1.40 (ng/ml)/mg, the t1/2 [12] was 24.1 h and the AUC0-12 [13] was 1.82 µg·h/mL. The AUC0-24 [13] was 2.38 µg·h/mL, the “AUC0-∞” value [13] was 3.48 µg·h/mL and the C12 [13] was 63.5 ng/mL. For the same compound, the C24 [13] was 32.6 ng/mL, the Cmax [13] was 0.319 µg/mL and the Cmax/D [13] was 1.59 (ng/ml)/mg. For the same compound, the t1/2 [13] was 25.0 h, the AUC0-12 [14] was 2.92 µg·h/mL and the “AUC0-∞” value [14] was 3.4 µg·h/mL. The C12 [14] was 90.2 ng/mL, the Cmax [14] was 0.532 µg/mL and the Cmax/D [14] was 1.33 (ng/ml)/mg. For the same compound, the t1/2 [14] was 3.71 h, the AUC0-12 [15] was 3.28 µg·h/mL and the “AUC0-∞” value [15] was 3.78 µg·h/mL. The C12 [15] was 99.3 ng/mL, the Cmax [15] was 0.595 µg/mL and the Cmax/D [15] was 1.49 (ng/ml)/mg. The t1/2 [15] was 3.80 h, the AUC0-12 [16] was 4.34 µg·h/mL and the AUC0-24 [16] was 7.43 µg·h/mL. The AUC0-24/D [16] was 9.28 (hr*ng/ml)/mg, the “AUC0-∞” value [16] was 6.86 µg·h/mL and the C12 [16] was 242 ng/mL. For the same compound, the Cmax [16] was 0.67 µg/mL, the Cmax/D [16] was 1.68 (ng/ml)/mg and the t1/2 [16] was 5.3 h. For the same compound, the AUC0-12 [17] was 4.59 µg·h/mL, the AUC0-24 [17] was 7.87 µg·h/mL and the AUC0-24/D [17] was 9.83 (hr*ng/ml)/mg. The “AUC0-∞” value [17] was 7.09 µg·h/mL, the C12 [17] was 252 ng/mL and the Cmax [17] was 0.739 µg/mL. For the same compound, the Cmax/D [17] was 1.85 (ng/ml)/mg, the t1/2 [17] was 5.31 h and the RAUC0-12 [18] was 2.15. It also gave an RCmax [18] of 1.81, an RAUC0-12 [19] of 2.38 and an RCmax [19] of 2.00. For the same compound, the AUC0-12 [20] was 6.25 µg·h/mL, the “AUC0-∞” value [20] was 7.48 µg·h/mL and the C12 [20] was 222 ng/mL. For the same compound, the Cmax [20] was 0.96 µg/mL, the Cmax/D [20] was 2.40 (ng/ml)/mg and the t1/2 [20] was 3.89 h. For the same compound, the AUC0-12 [21] was 6.6 µg·h/mL, the “AUC0-∞” value [21] was 7.84 µg·h/mL and the C12 [21] was 240 ng/mL. The Cmax [21] was 1 µg/mL, the Cmax/D [21] was 2.51 (ng/ml)/mg and the t1/2 [21] was 3.94 h. It also gave an RAUC0-12 [22] of 1.50, an RCmax [22] of 1.08 and an RAUC0-12 [23] of 1.63. For the same compound, the RCmax [23] was 1.18, the AUC0-12 [24] was 4.36 µg·h/mL and the AUC0-24 [24] was 10.6 µg·h/mL. The AUC0-24/D [24] was 13.3 (hr*ng/ml)/mg, the “AUC0-∞” value [24] was 6.45 µg·h/mL and the C12 [24] was 356 ng/mL. The Cmax [24] was 0.574 µg/mL, the Cmax/D [24] was 1.44 (ng/ml)/mg and the t1/2 [24] was 5.08 h. The AUC0-12 [25] was 4.61 µg·h/mL, the AUC0-24 [25] was 11.2 µg·h/mL and the AUC0-24/D [25] was 14.0 (hr*ng/ml)/mg. For the same compound, the “AUC0-∞” value [25] was 6.52 µg·h/mL, the C12 [25] was 396 ng/mL and the Cmax/D [25] was 1.52 (ng/ml)/mg. The t1/2 [25] was 5.10 h, the RAUC0-12 [26] was 1.43 and the RCmax [26] was 1.35. For the same compound, the RAUC0-12 [27] was 1.65, the RCmax [27] was 1.54 and the AUC0-12 [28] was 4.16 µg·h/mL. For the same compound, the AUC0-24 [28] was 5.41 µg·h/mL, the AUC0-24/D [28] was 13.5 (hr*ng/ml)/mg and the “AUC0-∞” value [28] was 8.12 µg·h/mL. For the same compound, the C12 [28] was 140 ng/mL, the C24 [28] was 73.3 ng/mL and the Cmax [28] was 0.717 µg/mL. The Cmax/D [28] was 1.79 (ng/ml)/mg, the t1/2 [28] was 30.4 h and the AUC0-24 [29] was 5.66 µg·h/mL. For the same compound, the AUC0-24/D [29] was 14.1 (hr*ng/ml)/mg, the “AUC0-∞” value [29] was 8.5 µg·h/mL and the C12 [29] was 149 ng/mL. The Cmax [29] was 0.749 µg/mL, the Cmax/D [29] was 1.87 (ng/ml)/mg and the t1/2 [29] was 30.6 h. The “Dose proportionality analysis, AUC0-12: Intercept estimate” value [30] was 0.828, the “Dose proportionality analysis, AUC0-inf: Intercept estimate” value [30] was 1.12 and the “Dose proportionality analysis, Cmax: Intercept estimate” value (shortened to “Dose proportionality analysis, Cmax”) [30] was 0.167. The “Dose proportionality analysis, AUC0-12: Intercept estimate” value [31] was 2.63, the “Dose proportionality analysis, Cmax” value [31] was 0.393 and the “Dose proportionality analysis, AUC0-12: Intercept estimate” value [32] was 5.18. The “Dose proportionality analysis, Cmax” value [32] was 0.877.
